# Results as given in article PMC12775434, “Ultra-large virtual screening unveils potent agonists of the neuromodulatory orphan receptor GPR139” (Nature Communications, 2025).
# “And” between values parts separate entries of the source, which are not always exact repeats. Equal values may be shown once. Read-outs that look alike come from different tables or passages of the source.
# Columns and labels:
# Format in all cases: cell-based
# [1] = target: T1, GPR139 (Homo sapiens, UniProt Q6DWJ6); assay: Ca2+ mobilization assay, antagonist mode (EC80 800 nM Lundbeck Cmp 1a after 20 min preincubation), GPR139-CHOk1; conditions: individual replicates (Supplementary Figure 4)
# T1 sequence (Q6DWJ6 1-353): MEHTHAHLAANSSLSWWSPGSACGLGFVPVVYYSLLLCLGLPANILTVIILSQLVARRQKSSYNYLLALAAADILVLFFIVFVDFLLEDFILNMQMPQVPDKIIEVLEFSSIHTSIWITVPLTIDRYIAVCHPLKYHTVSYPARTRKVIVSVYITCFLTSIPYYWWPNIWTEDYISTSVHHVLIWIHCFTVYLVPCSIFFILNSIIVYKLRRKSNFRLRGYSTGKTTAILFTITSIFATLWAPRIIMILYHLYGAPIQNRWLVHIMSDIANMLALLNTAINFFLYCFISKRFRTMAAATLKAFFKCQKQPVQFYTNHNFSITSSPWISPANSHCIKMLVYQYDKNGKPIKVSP
# Method in brief: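 Antagonist mode: 800 nM (EC80) reference agonist Lundbeck Cmp 1a added following 20 min pre-incubation with 10 µM compound. GPR139-CHOk1 cells, Fluo-4 dye, probenecid-containing HEPES buffer pH 7.4; intracellular Ca2+ measured at 37 °C (ex 485, em 525 nm).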
# [2] = target: T1, GPR139; assay: Ca2+ mobilization assay, agonist mode, stable GPR139-CHOk1 cell line; conditions: for Emax: normalized to Lundbeck Cmp 1a, read-out: Emax (%) Ca2+
# Method in brief: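 Agonist activity of compounds is assessed in stably transfected CHO-K1 cells using the calcium dye Fluo-4 at 37 °C in HEPES-buffered HBSS (pH 7.4). Efficacy is expressed relative to the reference agonist Lundbeck Cmp 1a, set as 100%.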
# [3] = target: T2, human muscarinic acetylcholine M1 receptor (M1R) (Homo sapiens, UniProt P11229); assay: Ca2+ mobilization counter-screen in M1R-CHOk1 cells; conditions: individual replicates (Supplementary Figure 5);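 further: 10 µM test compound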
# T2 sequence (P11229 1-460): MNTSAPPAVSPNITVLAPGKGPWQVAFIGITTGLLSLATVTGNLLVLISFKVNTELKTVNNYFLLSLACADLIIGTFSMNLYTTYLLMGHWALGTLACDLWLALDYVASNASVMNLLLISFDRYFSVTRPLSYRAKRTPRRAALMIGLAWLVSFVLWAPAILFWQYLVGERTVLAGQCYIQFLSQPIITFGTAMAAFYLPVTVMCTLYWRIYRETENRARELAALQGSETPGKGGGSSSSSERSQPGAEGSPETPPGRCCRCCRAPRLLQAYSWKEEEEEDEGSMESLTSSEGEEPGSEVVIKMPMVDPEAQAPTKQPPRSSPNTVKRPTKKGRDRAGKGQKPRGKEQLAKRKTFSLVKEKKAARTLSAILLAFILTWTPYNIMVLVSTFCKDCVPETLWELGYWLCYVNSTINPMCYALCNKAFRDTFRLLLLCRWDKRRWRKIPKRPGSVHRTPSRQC
# Method in brief: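 Counter-screen used CHO-K1 cells stably carrying human M1R, Fluo-4 AM-loaded (2 µM, 1 h, 37 °C). Calcium signal measured at 485/525 nm after compound addition.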
# [4] = Agonist mode, individual replicates (Supplementary Figure 4)
# [5] = Supplementary Table 2, mean ± SEM, read-out: pEC50 Ca2+ (converted)
# [6] = Supplementary Table 2, mean ± SEM
# [7] = log [Compound] M = -4.5, individual replicate columns
# [8] = log [Compound] M = -5.0, individual replicate columns
# [9] = log [Compound] M = -5.5, individual replicate columns
# [10] = log [Compound] M = -6.0, individual replicate columns
# [11] = log [Compound] M = -6.5, individual replicate columns
# [12] = log [Compound] M = -7.0, individual replicate columns
# [13] = log [Compound] M = -7.5, individual replicate columns
# [14] = log [Compound] M = -8.0, individual replicate columns
# [15] = log [Compound] M = -8.5, individual replicate columns
# [16] = log [Compound] M = -9.0, individual replicate columns
SMILES,Ca2+ signal (% of Cmp 1a) [1],"Ca2+ signal (% of Cmp 1a) [2, 4]",change in potency with larger substituents on the thiophene ring ([2]; Ca2+ mobilization),"EC50 [2, 5]","Emax [2, 6]","Ca2+ signal (% of Cmp 1a) [2, 7]","Ca2+ signal (% of Cmp 1a) [2, 8]","Ca2+ signal (% of Cmp 1a) [2, 9]","Ca2+ signal (% of Cmp 1a) [2, 10]","Ca2+ signal (% of Cmp 1a) [2, 11]","Ca2+ signal (% of Cmp 1a) [2, 12]","Ca2+ signal (% of Cmp 1a) [2, 13]","Ca2+ signal (% of Cmp 1a) [2, 14]","Ca2+ signal (% of Cmp 1a) [2, 15]","Ca2+ signal (% of Cmp 1a) [2, 16]",Ca2+ signal (% of Carbachol) [3],"EC50 ([2]; GPR139-CHOk1, read-out: EC50, Ca2+ mobilization)",fold decrease in potency relative to a similar phenyl substituted compound (1.3) ([2]; Ca2+ mobilization EC50)
"CCc1ccc(-c2nc(CC(=O)NC(C)c3ccccc3)no2)s1 (centres unmarked) [Compound 1.12, CCC1=CC=C(C2=NC(CC(NC(C3=CC=CC=C3)C)=O)=NO2)S1]",15 % of Cmp 1a and 8 % of Cmp 1a and -3.33 % of Cmp 1a,86 % of Cmp 1a and 84 % of Cmp 1a and 95 % of Cmp 1a,three-fold reduction to a complete loss of activity,398 nM,93 ± 4%,90 % of Cmp 1a and 89 % of Cmp 1a and 81 % of Cmp 1a and 78 % of Cmp 1a,105 % of Cmp 1a and 80 % of Cmp 1a and 63 % of Cmp 1a and 94 % of Cmp 1a,111 % of Cmp 1a (2×) and 80 % of Cmp 1a and 55 % of Cmp 1a,66 % of Cmp 1a and 61 % of Cmp 1a and 43 % of Cmp 1a and 78 % of Cmp 1a,49 % of Cmp 1a and 48 % of Cmp 1a and 28 % of Cmp 1a and 56 % of Cmp 1a,21 % of Cmp 1a and 33 % of Cmp 1a and 9 % of Cmp 1a and 38 % of Cmp 1a,6 % of Cmp 1a and 10 % of Cmp 1a and 3.55 % of Cmp 1a and 24 % of Cmp 1a,-0.628 % of Cmp 1a and 0.281 % of Cmp 1a and 16 % of Cmp 1a and 5 % of Cmp 1a,-1.24 % of Cmp 1a and 1.81 % of Cmp 1a and 5 % of Cmp 1a and 9 % of Cmp 1a,6.67 % of Cmp 1a and -5 % of Cmp 1a and 1.66 % of Cmp 1a and 6 % of Cmp 1a,8 % of Carbachol and 5.44 % of Carbachol and 4 % of Carbachol,,
"Cc1cccc(-c2nc(CC(=O)NC(C)c3ccccc3)no2)c1 (centres unmarked) [Compound 1.3, CC(C1=CC=CC=C1)NC(CC2=NOC(C3=CC(C)=CC=C3)=N2)=O]",13 % of Cmp 1a and 0.333 % of Cmp 1a and -11 % of Cmp 1a,106 % of Cmp 1a and 102 % of Cmp 1a and 119 % of Cmp 1a,,,109 ± 6%,95 % of Cmp 1a and 109 % of Cmp 1a and 110 % of Cmp 1a and 97 % of Cmp 1a,91 % of Cmp 1a (2×) and 123 % of Cmp 1a and 104 % of Cmp 1a,80 % of Cmp 1a and 126 % of Cmp 1a and 100 % of Cmp 1a and 85 % of Cmp 1a,76 % of Cmp 1a and 101 % of Cmp 1a and 90 % of Cmp 1a and 71 % of Cmp 1a,55 % of Cmp 1a and 89 % of Cmp 1a and 72 % of Cmp 1a and 60 % of Cmp 1a,36 % of Cmp 1a and 68 % of Cmp 1a and 56 % of Cmp 1a and 52 % of Cmp 1a,12 % of Cmp 1a and 48 % of Cmp 1a (2×) and 34 % of Cmp 1a,5.33 % of Cmp 1a and 18 % of Cmp 1a and 26 % of Cmp 1a and 21 % of Cmp 1a,5 % of Cmp 1a and 3.67 % of Cmp 1a and 12 % of Cmp 1a and 9 % of Cmp 1a,-3 % of Cmp 1a and 12 % of Cmp 1a and 5.67 % of Cmp 1a and 8 % of Cmp 1a,24 % of Carbachol and -2 % of Carbachol and 12 % of Carbachol,100 nM,
"Cc1nc(-c2nc(CC(=O)NC(C)c3ccccc3)no2)co1 (centres unmarked) [Compound 1.29, CC(C1=CC=CC=C1)NC(CC2=NOC(C3=COC(C)=N3)=N2)=O]",41 % of Cmp 1a and 13 % of Cmp 1a and 3 % of Cmp 1a,64 % of Cmp 1a and 49 % of Cmp 1a and 69 % of Cmp 1a,,2510 nM,90 ± 8%,126 % of Cmp 1a and 100 % of Cmp 1a and 74 % of Cmp 1a,67 % of Cmp 1a and 101 % of Cmp 1a and 61 % of Cmp 1a,46 % of Cmp 1a and 95 % of Cmp 1a and 41 % of Cmp 1a,17 % of Cmp 1a and 47 % of Cmp 1a and 13 % of Cmp 1a,0.562 % of Cmp 1a and 21 % of Cmp 1a and 3 % of Cmp 1a,-7 % of Cmp 1a and 12 % of Cmp 1a and 3 % of Cmp 1a,-2.32 % of Cmp 1a and 6.5 % of Cmp 1a and 3.51 % of Cmp 1a,0.891 % of Cmp 1a and 5.39 % of Cmp 1a and 3 % of Cmp 1a,-0.262 % of Cmp 1a and 8 % of Cmp 1a and -2.12 % of Cmp 1a,-0.615 % of Cmp 1a and 11 % of Cmp 1a and -1.07 % of Cmp 1a,-4.71 % of Carbachol and 3.73 % of Carbachol and 1.63 % of Carbachol,,
"Cc1cncc(-c2nc(CC(=O)NC(C)c3ccccc3)no2)c1 (centres unmarked) [Compound 1.24, CC(C1=CC=CC=C1)NC(CC2=NOC(C3=CC(C)=CN=C3)=N2)=O]",5.33 % of Cmp 1a and 17 % of Cmp 1a and -8 % of Cmp 1a,83 % of Cmp 1a and 52 % of Cmp 1a and 78 % of Cmp 1a,,1580 nM,91 ± 4%,103 % of Cmp 1a and 95 % of Cmp 1a and 70 % of Cmp 1a and 88 % of Cmp 1a and 90 % of Cmp 1a,68 % of Cmp 1a and 86 % of Cmp 1a and 73 % of Cmp 1a and 72 % of Cmp 1a and 97 % of Cmp 1a,50 % of Cmp 1a and 66 % of Cmp 1a and 58 % of Cmp 1a and 47 % of Cmp 1a and 97 % of Cmp 1a,24 % of Cmp 1a and 41 % of Cmp 1a and 39 % of Cmp 1a and 38 % of Cmp 1a and 62 % of Cmp 1a,1.31 % of Cmp 1a and 19 % of Cmp 1a and 31 % of Cmp 1a and 8.44 % of Cmp 1a and 34 % of Cmp 1a,2.29 % of Cmp 1a and 0.399 % of Cmp 1a and 4 % of Cmp 1a and 2 % of Cmp 1a and 17 % of Cmp 1a,-0.0494 % of Cmp 1a and 2.8 % of Cmp 1a and -5.43 % of Cmp 1a and 8 % of Cmp 1a and 5.52 % of Cmp 1a,-0.83 % of Cmp 1a and 7.38 % of Cmp 1a and -0.358 % of Cmp 1a and 15 % of Cmp 1a and 4 % of Cmp 1a,3.55 % of Cmp 1a and 3 % of Cmp 1a and -1.51 % of Cmp 1a and 6 % of Cmp 1a and 3.35 % of Cmp 1a,2 % of Cmp 1a and 1.41 % of Cmp 1a and 6 % of Cmp 1a and 4 % of Cmp 1a and 3 % of Cmp 1a,-0.598 % of Carbachol and 5 % of Carbachol and 4.73 % of Carbachol,,4- to 16 fold
